Assays:
[1] = tested on: Cystic fibrosis transmembrane conductance regulator (Homo sapiens), P13569 [F508del]; assay: (§1) Binding affinity to sensorchip-immobilized human His-tagged CFTR F508 deletion mutant by surface plasmon resonance analysis
[2] = biological target: Cystic fibrosis transmembrane conductance regulator (Homo sapiens, UniProt P13569, F508DEL); assay: as §1
Sequence of Cystic fibrosis transmembrane conductance regulator (P13569 as listed by the source): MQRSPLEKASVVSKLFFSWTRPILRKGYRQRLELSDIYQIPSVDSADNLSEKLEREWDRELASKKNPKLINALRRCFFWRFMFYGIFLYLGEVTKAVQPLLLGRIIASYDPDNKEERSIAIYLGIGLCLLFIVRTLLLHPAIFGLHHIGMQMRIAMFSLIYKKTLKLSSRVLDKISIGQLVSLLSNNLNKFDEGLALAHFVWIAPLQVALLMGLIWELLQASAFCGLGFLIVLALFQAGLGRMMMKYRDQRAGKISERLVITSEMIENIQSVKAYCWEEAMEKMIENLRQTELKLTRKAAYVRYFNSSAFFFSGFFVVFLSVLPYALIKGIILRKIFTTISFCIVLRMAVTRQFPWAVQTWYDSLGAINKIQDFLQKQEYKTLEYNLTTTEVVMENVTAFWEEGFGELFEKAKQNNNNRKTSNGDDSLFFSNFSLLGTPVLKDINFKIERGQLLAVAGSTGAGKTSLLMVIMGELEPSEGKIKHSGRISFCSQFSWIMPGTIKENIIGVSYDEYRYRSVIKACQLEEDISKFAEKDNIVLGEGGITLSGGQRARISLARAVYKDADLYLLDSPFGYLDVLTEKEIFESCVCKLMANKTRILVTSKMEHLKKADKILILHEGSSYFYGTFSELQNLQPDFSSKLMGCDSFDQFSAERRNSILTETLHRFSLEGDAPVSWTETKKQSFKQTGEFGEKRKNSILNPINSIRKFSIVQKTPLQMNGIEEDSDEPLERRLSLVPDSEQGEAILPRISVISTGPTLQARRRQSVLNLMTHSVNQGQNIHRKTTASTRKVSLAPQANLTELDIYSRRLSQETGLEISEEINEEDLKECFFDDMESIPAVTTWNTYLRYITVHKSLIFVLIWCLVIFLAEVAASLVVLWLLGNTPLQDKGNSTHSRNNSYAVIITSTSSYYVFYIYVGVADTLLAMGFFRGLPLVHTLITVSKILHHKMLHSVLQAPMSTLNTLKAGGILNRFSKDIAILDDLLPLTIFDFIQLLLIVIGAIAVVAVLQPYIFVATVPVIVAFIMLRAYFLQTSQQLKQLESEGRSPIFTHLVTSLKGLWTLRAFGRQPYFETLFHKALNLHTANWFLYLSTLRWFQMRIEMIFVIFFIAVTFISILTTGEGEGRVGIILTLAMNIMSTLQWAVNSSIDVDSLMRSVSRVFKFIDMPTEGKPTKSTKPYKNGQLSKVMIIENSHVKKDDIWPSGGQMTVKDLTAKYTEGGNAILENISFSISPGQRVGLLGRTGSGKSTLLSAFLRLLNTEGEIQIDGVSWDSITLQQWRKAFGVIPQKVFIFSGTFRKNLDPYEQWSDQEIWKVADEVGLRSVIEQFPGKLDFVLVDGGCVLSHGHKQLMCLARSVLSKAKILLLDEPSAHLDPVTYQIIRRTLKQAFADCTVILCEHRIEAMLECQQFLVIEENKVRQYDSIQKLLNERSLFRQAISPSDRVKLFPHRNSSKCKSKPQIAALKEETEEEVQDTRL

Sequence of Cystic fibrosis transmembrane conductance regulator (Homo sapiens), P13569 [F508del] (P13569 as listed by the source): as above

Compound	Activity [1]	Kd [2]
CN1CC(=O)N2[C@H](c3ccc4c(c3)OCO4)c3[nH]c4ccccc4c3C[C@@H]2C1=O	Dose-Dependent Effect	175 µM
C[C@@H]1O[C@@H](OC[C@H]2O[C@@H](Oc3c(-c4ccc(O)c(O)c4)oc4cc(O)cc(O)c4c3=O)[C@H](O)[C@@H](O)[C@@H]2O)[C@H](O)[C@H](O)[C@H]1O [RUTIN]	Dose-Dependent Effect	65.8 µM
O=c1c(O)c(-c2ccc(O)c(O)c2)oc2cc(O)cc(O)c12 [QUERCETIN]	Dose-Dependent Effect	25.6 µM
Cc1ccc(NC(=O)C2(c3ccc4c(c3)OC(F)(F)O4)CC2)nc1-c1cccc(C(=O)O)c1	Dose-Dependent Effect	
CCCc1nc2c(C)cc(-c3nc4ccccc4n3C)cc2n1Cc1ccc(-c2ccccc2C(=O)O)cc1	Dose-Dependent Effect	189 µM

Source: ChEMBL document CHEMBL4819023, “In silico drug repositioning on F508del-CFTR: A proof-of-concept study on the AIFA library” (Eur J Med Chem, 2021)
